The structures appear in SMILES notation.

The target of this assay is Dual specificity tyrosine-phosphorylation-regulated kinase 1A (Homo sapiens, UniProt Q13627). The assay is described as follows: DYRK1A Inhibition Assay. The protocol:
1. Add 5 μL enzyme & substrate mixture to each well in Column 2-23 and A24-H24 wells of the 384-well assay plate;2. Add 5 μL 0% Phosphorylation control to A1-H1 and I24-P24 wells of the assay plate;3. Add 5 μL 100% Phosphorylation control to I1-P1 wells of the assay plate;4. Spin the assay plate (1000 rpm, 1 minute @23° C.);5. Incubate enzyme with compounds for 15 minutes at 23° C.;6. Add 5 μL ATP solution to each well of the assay plate;7. Spin the plate (1000 rpm, 1 minute @23° C.);8. Incubate the assay plate for 90 minutes at 23° C.;9. Add 10 μL Development reagent A to each well of the assay plate;10. Centrifuge the plate at 1000 rpm about 15 seconds and seal a film over assay plate. Incubate the assay plate for 30 minutes at 23° C.11. Read assay plates on Envision (see Tables A, B, and C).Final Compound ConcentrationsAssay buffer: 50 mM Hepes pH7.5, 10 mM MgCl2, 1 mM EDTA, 0.01% Brij-35DYRK1A: 1 nMATP: 20 μMSer/Thr 18 peptide: 2 μMReaction time: 90 minutes.
The IC50 is the point on the concentration scale where inhibition reaches its midpoint. `O=C(O)[C@H]1C[C@H](Oc2c(-c3cncs3)ccc3cnccc23)C1` [US20250066318, Compound I.70] registered an IC50 of 550 nM.
In the case of `Cn1c(C2CCNCC2)cn2ncc(-c3ccc(C#N)cc3)c2c1=O` [US20250066318, Compound II.44] it was 625 nM; in that of `O=C(O)C1CN(c2cn3ncc(-c4ccc5cnccc5c4)c3cn2)C1` [US20250066318, Compound I.73], less than 10 nM; in that of `CC(=O)N1CCC(Oc2cncc3ccc(-c4cnc(C#CC5CCOCC5)s4)cc23)CC1` [US20250066318, Compound I.96], less than 10 nM.
The figure for `Cc1ncc2ccc(-c3cnn(C)c3)cc2c1OC1CN(C)C1` [US20250066318, Compound I.78] is 55 nM; for `CN1CCC(C#Cc2cc3cc(-c4cnn(C)c4)ccc3cn2)CC1` [US20250066318, Compound I.107] it is 55 nM; for `CC(C)CN1CCC(C(=O)Nc2ncc(-c3ccc4cnc(C5CC5)cc4c3)s2)CC1` [US20250066318, Compound I.105] it is 55 nM.
The figure for `O=C(O)[C@H]1C[C@@H](Oc2c(-c3cncs3)ccc3cnccc23)C1` [US20250066318, Compound I.69] is 550 nM; for `CN(C)[C@H]1CC[C@@H](Oc2cc3cc(-c4cnc(C#CC5CCOCC5)s4)ccc3cn2)CC1` [US20250066318, Compound I.103] it is more than 1000 nM; for `CC(C)CN1CCC(C#Cc2ncc(-c3ccc4cnc(Cl)cc4c3)s2)CC1` [US20250066318, Compound I.104] it is 55 nM.
Compound `COc1cncc2ccc(-c3cnn4cc(-c5ccc(=O)n(C)c5)cnc34)cc12` [US20250066318, Compound I.93] registered an IC50 of less than 10 nM.
`CN1CCc2c(c(-c3cnc4c(-c5ccc(C#N)cc5)cnn4c3)cn(C)c2=O)C1` [US20250066318, Compound II.43] displayed a concentration for half-maximal inhibition (IC50) of more than 1000 nM.
For the compound `Cc1ncc2ccc(-c3cnn(C)c3)cc2c1OC1CNC1` [US20250066318, Compound I.77], the IC50 is 55 nM.
`CS(=O)(=O)N1CCC(Oc2cncc3ccc(-c4cnn5cc(C(F)(F)F)ccc45)cc23)CC1` [US20250066318, Compound I.85] gave an IC50 of less than 10 nM.
In the case of `N#Cc1cccc(Oc2cncc3ccc(-c4cnc5ccccn45)cc23)c1` [US20250066318, Compound I.6] it was 550 nM; in that of `Cc1ncc2ccc(-c3cncs3)cc2c1O[C@H]1C[C@H](O)C1` [US20250066318, Compound I.80], less than 10 nM.
The figure for `Cc1ncc2ccc(-c3cnn(C)c3)cc2c1O[C@H]1C[C@H](O)C1` [US20250066318, Compound I.82] is less than 10 nM.
In the case of `N#Cc1cncc2ccc(-c3cnc(C#CC4CCOCC4)s3)cc12` [US20250066318, Compound I.94] it was 550 nM; in that of `Cc1ncc2ccc(-c3cncs3)cc2c1OC1CNC1` [US20250066318, Compound I.75], 55 nM.
`CC(=O)N1CCC(Oc2cncc3ccc(-c4cnn5cc(C(F)(F)F)ccc45)cc23)CC1` [US20250066318, Compound I.86] came in with an IC50 of less than 10 nM.
`Cn1cc(-c2ccc3cnc(C#CC4CCNCC4)cc3c2)cn1` [US20250066318, Compound I.106]: the midpoint of inhibition, the IC50, lay at 55 nM.
Turning to `Cc1ncc2ccc(-c3cnn(C)c3)cc2c1O[C@H]1C[C@@H](O)C1` [US20250066318, Compound I.81], the IC50 is less than 10 nM.
`Cn1cc(-c2ccc3cnc(NC(=O)OC4(C)CC4)cc3c2)cn1` [US20250066318, Compound I.83] yielded a concentration for half-maximal inhibition (IC50) of less than 10 nM.
The compound `CN1CC=C(c2cn3ncc(-c4ccc(C#N)cc4)c3c(=O)[nH]2)CC1` [US20250066318, Compound II.46] had an IC50 of 175 nM.
Regarding `O=C(O)[C@H]1C[C@@H](Nc2c(-c3cncs3)ccc3cnccc23)C1` [US20250066318, Compound I.68], the IC50 was 550 nM.
For the compound `CC(=O)N1CCN(Cc2cncc3ccc(-c4cnn5cc(C(F)(F)F)ccc45)cc23)CC1` [US20250066318, Compound I.89], the IC50 was found to be 55 nM.
In the case of `O=C(O)C1CC(Nc2cc3cc(-c4cncs4)ccc3cn2)C1` (stereo not drawn) [US20250066318, Compound I.74] it was 55 nM; in that of `Cc1ncc2ccc(-c3cncs3)cc2c1OC1CN(C)C1` [US20250066318, Compound I.76], 550 nM; in that of `CN1CCC(Oc2cc3cc(-c4cnc(C#CC5CCOCC5)s4)ccc3cn2)CC1` [US20250066318, Compound I.100], 550 nM.
In the case of `Cn1cc(-c2ccc3cnc(C#CC4CCOCC4)cc3c2)cn1` [US20250066318, Compound I.108] it was 55 nM; in that of `C(#CC1CCOCC1)c1ncc(-c2ccc3cncc(OC4CCNCC4)c3c2)s1` [US20250066318, Compound I.95], less than 10 nM.
As for `C(#CC1CCOCC1)c1ncc(-c2ccc3cnc(OC4CCNCC4)cc3c2)s1` [US20250066318, Compound I.98], the IC50 came out at 550 nM.
In the case of `CN(C)[C@H]1CC[C@H](Oc2cc3cc(-c4cnc(C#CC5CCOCC5)s4)ccc3cn2)CC1` [US20250066318, Compound I.102] it was more than 1000 nM.
The figure for `CC(=O)N1CCN(Cc2cc3cc(-c4cnc(C#CC5CCOCC5)s4)ccc3cn2)CC1` [US20250066318, Compound I.101] is more than 1000 nM.
The figure for `Cc1c(F)ncc2ccc(-c3cnn(C)c3)cc12` [US20250066318, Compound I.64] is 55 nM; for `CC(=O)N1CCC(Oc2cc3cc(-c4cnc(C#CC5CCOCC5)s4)ccc3cn2)CC1` [US20250066318, Compound I.99] it is more than 1000 nM.
As to `O=C(O)C1CCN(Cc2cncc3ccc(-c4cnn5cc(C(F)(F)F)ccc45)cc23)CC1` [US20250066318, Compound I.88], the IC50 was found to be 550 nM.
Regarding `Cn1cc(C#Cc2ncc(-c3ccc4cnccc4c3)s2)ccc1=O` [US20250066318, Compound I.92], the IC50 is less than 10 nM.
Turning to `O=C(O)[C@H]1C[C@H](Nc2c(-c3cncs3)ccc3cnccc23)C1` [US20250066318, Compound I.67], the IC50 was more than 1000 nM.
In the case of `CN1CCC(Oc2cncc3ccc(-c4cnc(C#CC5CCOCC5)s4)cc23)CC1` [US20250066318, Compound I.97] it was less than 10 nM; in that of `Cc1ncc2ccc(-c3cncs3)cc2c1O[C@H]1C[C@@H](O)C1` [US20250066318, Compound I.79], less than 10 nM; in that of `O=C(O)[C@H]1C[C@@H](Nc2ncc(-c3ccc4cnccc4c3)s2)C1` [US20250066318, Compound I.71], 55 nM.
In the case of `CN1CCC(c2cn3ncc(-c4ccc(C#N)cc4)c3c(=O)n2C)CC1` [US20250066318, Compound II.45], half-maximal inhibition (IC50) was put at 625 nM.

The values are drawn from BindingDB's records for patent US20250066318 (Prothena Biosciences, 2025).
